These results are taken from publication PMC6256351, “Stereoselective Synthesis of the Isomers of Notoincisol A: Assigment of the Absolute Configuration of this Natural Product and Biological Evaluation” (Journal of Natural Products, 2018).

By EC50 is commonly meant the midpoint of the concentration-response curve.

The target of this assay is T1, PPARγ (peroxisome proliferator-activated receptor gamma) (Homo sapiens, UniProt P37231).
T1 construct: gene PPARG; full-length human PPARγ
T1 sequence (P37231 1-505): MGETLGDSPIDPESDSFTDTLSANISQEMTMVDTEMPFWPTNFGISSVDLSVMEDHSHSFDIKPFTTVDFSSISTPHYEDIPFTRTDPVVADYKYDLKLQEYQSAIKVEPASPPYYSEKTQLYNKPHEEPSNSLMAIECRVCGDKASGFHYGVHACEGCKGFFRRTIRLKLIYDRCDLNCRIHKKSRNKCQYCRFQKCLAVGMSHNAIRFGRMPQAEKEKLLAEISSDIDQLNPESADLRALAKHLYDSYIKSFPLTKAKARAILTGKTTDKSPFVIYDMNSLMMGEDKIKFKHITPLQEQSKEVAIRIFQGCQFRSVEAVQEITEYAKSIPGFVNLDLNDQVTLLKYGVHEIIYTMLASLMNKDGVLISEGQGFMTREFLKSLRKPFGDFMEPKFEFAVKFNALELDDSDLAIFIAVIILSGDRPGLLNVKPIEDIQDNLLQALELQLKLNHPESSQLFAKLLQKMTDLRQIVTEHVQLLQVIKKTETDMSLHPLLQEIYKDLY
The experiment in a line: luciferase reporter gene transactivation in HEK293 cells transfected with PPARγ. The format is cell-based. A general note: Reporter assays use an easily measured gene product as a stand-in for the process of interest.

In turn, `C=C[C@@H](O)C#CC#C[C@H](/C=C\CCCCCCC)OC(=O)/C=C/c1ccc(O)c(OC)c1` [3R,8S-1, (3R,8S)-Notoincisol A] yielded an EC50 of 1200 nM.
